{"source": "patent US20120070442A1", "about": "“METHODS AND COMPOSITIONS FOR TREATING CANCER” (The Regents of the University of Colorado, a body corporate, priority 2007, published 2012)", "tested_on": "NSCLC", "experiment": "Clinical response and survival of NSCLC patients treated with gefitinib", "format": "in vivo, human", "text": "After appropriate approval from the institution and written informed consent for comprehensive use of molecular and pathologic analysis was received from each patient, NSCLC specimens were formalin-fixed, paraffin-embedded at Tokyo Medical University, Tokyo, Japan. Information on gender, age, histology, cigarette use, response, and survival was obtained for each patient. Tumor specimens were microdissected under stereoscopic microscopy (LEICA MZ12, Leica Microsystems, Wetzlar, Germany). DNA was extracted from tumor cells with the DNeasy Tissue Kit (Qiagen, Valencia, Calif.).\nFor all tests, a level of P<0.05 was considered statistically significant. Fisher's exact test for count data was used to analyze proportions among the factors studied. […] In this case, response or stable disease was considered a positive outcome while progressive disease was considered negative. The Kaplan-Meier method was used to estimate the probability of survival as a function of time. […] Significant differences between survival curves were analyzed using the log-rank test. Multivariate analysis of the relative importance of the factors to survival was performed using the Cox proportional-hazards method.\nEach sample was analyzed in triplicate on a quantitation run. The ratio of miR-128b to CFTR DNA copies was determined. […]"}
{"compound": "COc1cc2ncnc(Nc3ccc(F)c(Cl)c3)c2cc1OCCCN1CCOCC1", "note": "[Gefitinib, N-(3-chloro-4-fluoro-phenyl)-7-methoxy-6-(3-morpholin-4-ylpropoxy)quinazolin-4-amine]", "values": [{"measurement": "survival after initiation of gefitinib therapy", "setting": "NSCLC patients with deletion of miR-128b by DNA copy", "value": 23.3, "unit": "months"}, {"measurement": "survival after initiation of gefitinib therapy", "setting": "NSCLC patients without deletion of miR-128b by DNA copy", "value": 10.7, "unit": "months"}]}
